How the values were obtained:
[1] = system: PD-L1 (U2OS/PD-L1 cells, Jurkat-PD-1-SHP cells); experiment: Src Homology Region 2 Domain-containing Phosphatase (SHP) assay; type: cell-based; details: Homo sapiens; U2OS/PD-L1 + Jurkat-PD-1-SHP cells, 2 hours
How it was run: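 U2OS/PD-L1 cells and Jurkat-PD-1-SHP cells (5,000 each per well) were co-incubated with compound in RPMI1640/1% FBS for 2 h at 37° C, with final DMSO 0.05%. PathHunter chemiluminescence was read after 1 h at room temperature. IC50 was fitted from percent of DMSO-control activity against log concentration.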

[2] = system: PD-L1 (PD-L1 aAPC/CHO-K1 cells, Jurkat-PD-1-NFAT effector cells); experiment: Nuclear Factor of Activated T-cells (NFAT) assay; type: cell-based; details: Cricetulus griseus; PD-L1 aAPC/CHO-K1 + Jurkat-PD-1-NFAT cells, 24 hours
How it was run: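 PD-L1 aAPC/CHO-K1 cells (8000/well) were treated with compound (0.4% DMSO, 2 µM final), then co-cultured with Jurkat-PD-1-NFAT effector cells for 24 hours at 37° C. NFAT luciferase luminescence was normalized to DMSO as fold induction. Maximum induction is relative to the control compound's top FOI; EC50 is from curve fitting.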

[3] = molecular target: T1, PD-L1 on CD14+ cells in human whole blood (Homo sapiens, UniProt Q9NZQ7); experiment: PD-L1 whole blood internalization assay; type: cell-based; details: 1 ng/mL interferon γ, CD14+ gated, 24 hour
T1 construct: Cells were gated on CD14+ (BD Biosciences) and PD-L1 expression determined by mean fluorescence intensity; host or cells: CD14+ cells in normal human whole blood, stimulated with human interferon gamma
T1 sequence (Q9NZQ7 19-290): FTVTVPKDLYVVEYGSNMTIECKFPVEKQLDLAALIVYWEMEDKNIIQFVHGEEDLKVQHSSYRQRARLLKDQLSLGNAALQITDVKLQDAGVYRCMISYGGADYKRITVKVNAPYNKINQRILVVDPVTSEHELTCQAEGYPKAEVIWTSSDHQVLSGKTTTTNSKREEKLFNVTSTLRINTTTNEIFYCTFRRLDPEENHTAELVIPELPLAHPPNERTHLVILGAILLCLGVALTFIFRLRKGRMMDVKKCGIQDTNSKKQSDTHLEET
How it was run: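 Normal human whole blood exposed to compound concentration range plus 1 ng/mL IFN-γ for 18–20 h at 37 °C, then stained for PD-L1 and CD14, red cells lysed/fixed. PD-L1 MFI measured on CD14+ gated cells by flow cytometry; IC50 from percent inhibition versus log concentration fit.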

[4] = molecular target: T2, PD-⅟PD-L1 (recombinant human PD-L1 protein and human PD-1 protein) (Homo sapiens, UniProt Q9NZQ7); experiment: Homogeneous Time-Resolved Fluorescence (HTRF) PD-1/PD-L1 binding assay; details: 3 nM PD1, 10 nM PD-L1, 25° C., PBS pH 7.4
T2 construct: Recombinant human PD-L1 protein (19-238) with a His-tag at the C-terminus; purchased AcroBiosystems PD1-H5229 (PD-L1); PD1-H5257 (PD-1)
T2 sequence (Q9NZQ7 19-238): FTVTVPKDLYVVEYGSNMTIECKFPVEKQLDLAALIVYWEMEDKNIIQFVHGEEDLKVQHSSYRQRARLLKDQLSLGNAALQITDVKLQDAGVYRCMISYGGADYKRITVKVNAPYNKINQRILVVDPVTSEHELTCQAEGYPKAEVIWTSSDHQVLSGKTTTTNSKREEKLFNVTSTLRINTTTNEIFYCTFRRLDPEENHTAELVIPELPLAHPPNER

## Cc1c(Nc2nccc3cc(CN4CC[C@@H](O)C4)cnc23)cccc1-c1cccc(-c2nc3cc(CN4CC[C@@H](C(=O)O)C4)cc(C#N)c3o2)c1C [Compound 1, (R)-1-((7-cyano-2-(3′-(3-(((R)-3-hydroxypyrrolidin-1-yl)methyl)-1,7-naphthyridin-8-ylamino)-2,2′-dimethylbiphenyl-3-yl)benzo[d]oxazol-5-yl)methyl)pyrrolidine-3-carboxylic acid]
[1]
  IC50: < 10 nM
[2]
  EC50: < 100 nM
[3]
  IC50: < 500 nM

## Cn1c(C(=O)Nc2cccc(-c3cccc(NC(=O)c4nc5c(n4C)CCN(CCC46CCC(C(=O)O)(CC4)C6)C5)c3Cl)c2Cl)nc2c1CCN(CCC13CCC(C(=O)O)(CC1)C3)C2 [Compound 30, 4,4′-(((((2,2′-dichloro-[1,1′-bipheiryl]-3,3′-diyl)bis(azanediyl))bis(carbonyl))bis(1-methyl-1,4,6,7-tetrahydro-5H-imidazo[4,5-c]pyridine-2,5-diyl))bis(ethane-2,1-diyl))bis(bicyclo[2.2.1]heptane-1-carboxylic acid)]
[4]
  IC50: < 10 nM
[1]
  IC50: < 10 nM
[2]
  EC50: < 100 nM
[3]
  IC50: < 100 nM

Reference: US20230149409A1, “TREATMENT OF HUMAN PAPILLOMAVIRUS-ASSOCIATED CANCERS BY PD-L1 INHIBITORS” (priority 2021, published 2023)
